We go through six compounds from article PMC5015074, “Enhancing Endosomal Escape for Intracellular Delivery of Macromolecular Biologic Therapeutics” (Scientific Reports, 2016).

One data set deals with H1299 G1-10 cells. As to the kind of experiment: macropinocytosis assay (70-kDa neutral dextran-Texas Red uptake, FACS). To be noted: 10 μM peptide, 70 min, 70-kDa neutral dextran-Texas Red 100 μg/mL, 37°, triplicate. The format is cell-based, human. The procedure: 3,000 H1299 G1-10 cells were plated in a 48-well plate and treated with 10 μM TAT-P6-GG, TAT-P6-GWWG or TAT-P6-GFWFG peptides for 70 min in the presence of 70-kDa neutral dextran-Texas Red (100 μg/mL; Invitrogen) at 37° in triplicate. Cells were washed, trypsinized and analyzed by FACS (>2,000 cells per sample).

Data set [1] relates to GFPβ1-10 expressing H1299 cells. The experiment in a line: live cell split-GFP fluorescence complementation transduction assay (FACS). The format is cell-based, human. Conditions: GFPβ1-10 H1299 cells. The procedure:
(§1) All transduction experiments were performed in 48-well plates. An optimized protocol was established. First, 15,000 or 20,000 cells were plated in each well. Next day, the indicated peptides were pipetted into microcentrifuge tubes. Transduction buffer (60% OptiMEM and 40% PBS) was added to peptide (100 μl total volume), directly mixed by pipetting up and down five times and then immediately transferred to cells. […] All cells were trypsinized and collected in 250 μl OptiMEM without phenol red and analyzed by FACS (GFP, FSC/SSC). 4,000 viable cells were analyzed per sample. Data is presented as fold change in fluorescence compared to non-treated cells.

Data set [2] has the same test system.
Method: (§2) Cell morphology was determined by FACS analysis of FSC and SSC. Gates were set manually for viable cells using untreated control cells as reference and the fraction of viable cells compared to non-viable cells was determined for each sample. Data are presented as the relative difference compared to non-treated control cells. Viable cells per sample were determined by measuring number of viable cells that were analyzed per second by FACS. Gates for viable cells were set manually using untreated control cells as reference. Data are presented as the relative difference compared to untreated control cells.
For data set [3], the system named is GFPβ1-10 expressing HaCaT keratinocytes.
Method: as §2
For data set [4], the system named is GFPβ1-10 expressing MCF7 breast carcinoma cells.
Method: as §2
The subject of data set [5] is GFPβ1-10 expressing HaCaT keratinocytes. As to the kind of experiment: split-GFP complementation transduction assay (FACS). Type of data set: cell-based, human. Conditions: dose-dependent analysis by FACS, EED peptide compared to parental GFPβ11-(S-S)-TAT, triplicate samples. The procedure:
as §1
A general note: A flow cytometer gives signals particle by particle.

Data set [6] has as its system GFPβ1-10 expressing MDA-MB-231 breast carcinoma cells. The description is as above. Type of data set: cell-based, human. The procedure:
as §1

In data set [7] the test system is GFPβ1-10 expressing MCF7 breast carcinoma cells. Described as above. To be noted: dose-dependent analysis by FACS, EED peptide compared to parental GFPβ11-(S-S)-TAT, triplicate samples. Type of data set: cell-based, human. As for the experimental part: as §1
Data set [8] has as its system GFPβ1-10 expressing MDA-MB-231 breast carcinoma cells.
Method: as §2

In the case of “TAT-P6-GFWFG [TAT peptide with PEG6-GFWFG endosomal escape domain]”, the “stimulation of macropinocytosis, in words” value in the data set with H1299 G1-10 cells was “stimulate macropinocytosis to a similar extent”.
On to `CCN(CC)CCCC(C)Nc1ccnc2cc(Cl)ccc12` (centres unmarked) [Chloroquine, reference compound], for which the “increase in GFP fluorescence of GFPβ11-(S-S)-TAT treated cells on addition of Chloroquine” value in data set [1] (low concentration of GFPβ11-(S-S)-TAT peptide plus 100 μM Chloroquine) is ~ 4 fold.
With GFPβ11-(S-S)-TAT-P6-GWWWG [compound 9], in data set [2], the “Cell Viability 15 uM” value was 0.96, the “Cell Viability 30 uM” value was 0.42 and the “Cell Viability 45 uM” value was found to be 0.18.
GFPβ11-(S-S)-TAT-P6-GWGGWG [compound 8]: the “enhancement of GFP fluorescence compared to the -GWWG motif, in words” value in data set [1] was “decreased the enhancement significantly”. Besides, in [2], the “Cell Viability 15 uM” value worked out at 0.96, the “Cell Viability 30 uM” value came to 0.98 and the “Cell Viability 45 uM” value amounted to 0.97.
For GFPβ11-(S-S)-TAT-P6-GFWFG [compound 6], the “cytotoxicity, in words” value in data set [3], in [4] and in data set [8] was “non-cytotoxic” in each case. Also, the “increase in GFP fluorescence compared to the parental GFPβ11-(S-S)-TAT peptide” value in data set [1] (stated in text for Fig. 4b-e) was “five-fold”. Also, the “GFP complementation fluorescence / endosomal escape, in words” value in data set [5] is “significantly enhanced endosomal escape”; in data set [6] (MDA-MB-231, dose-dependent analysis by FACS, EED peptide compared to parental GFPβ11-(S-S)-TAT, triplicate samples) it was “significantly enhanced endosomal escape”; in data set [7] it was “significantly enhanced endosomal escape”. Also, the “Cell Viability 15 uM” value in data set [2] came to 0.97. For the same compound, the “Cell Viability 30 uM” value in data set [2] is 0.97. Further, the “Cell Viability 45 uM” value in [2] amounted to 0.90.
With `CCN(c1nc(N)c(C(=O)NC(=N)N)nc1Cl)C(C)C` [EIPA, reference compound], the “effect of macropinocytosis inhibitor on GFP fluorescence from GFPβ11-TAT, in words” value in [6] (MDA-MB-231c#G3 pre-treated with 80 μM EIPA, transduced with 60 μM GFPβ11-TAT with 80 μM EIPA for 40 or 80 min, FACS, triplicate) is recorded as “reduced GFP fluorescence to near background levels”.
